The values below come from the Kinase Knowledgebase extract (Sharma et al. 2016).

Assay [1] concerns the target CDK2 (UniProt P24941). Briefly: Enzyme Assay.
Assay [2] concerns the target CDK2 (human) (UniProt P24941). The assay is described as follows: Cell-Based Assay.
In assay [3] the test system is CDK2 (rat). The assay is described as follows: Cell-Based Assay. As to conditions: rasmc.

Converted amounts (≈) assume the structure as drawn. Bounds are passed on as bounds.

`CC(C)n1cnc2c(NCc3ccc(F)cc3)nc(NC[C@H](C)O)nc21` yielded an IC50 in assay [1] of 0.22 µg/mL (≈ 0.614 µM).
On the same count and under the same terms, in the case of `COc1ccc(CNc2nc(Cl)nc3c2ncn3C(F)(C(F)(F)F)C(F)(F)F)cc1` it was greater than 45 µg/mL; in that of `CC(CO)Nc1nc(NCc2ccc(F)cc2)c2ncn(C(C)C)c2n1` (stereo not given), 0.18 µg/mL (≈ 0.502 µM).
On the same count and under the same terms, to `CC(C)n1cnc2c(NCc3ccc(F)cc3)nc(NC[C@H]3CCCO3)nc21` belongs 0.58 µg/mL (≈ 1.51 µM).
The same measure, in the same setting: to `COc1ccc(CNc2nc(Cl)nc3c2ncn3CCCCl)cc1` belongs greater than 60 µg/mL; to `COc1ccc(CNc2nc(N3CC=CC3)nc3c2ncn3C(C)C)cc1`, 1 µg/mL (≈ 2.74 µM).
Turning to `CC(C)n1cnc2c(NCc3ccc(Cl)cc3)nc(N(CCO)CCNCCO)nc21`, the IC50 in assay [1] was 0.43 µg/mL (≈ 0.96 µM).
On the same count and under the same terms, in the case of `FC(F)(F)n1cnc2c(OCc3ccc(Cl)cc3)nc(Cl)nc21` it was greater than 60 µg/mL; in that of `COc1ccc(CNc2nc(N(CCO)Cc3ccccc3)nc3c2ncn3C(C)C)cc1`, 1 µg/mL (≈ 2.24 µM).
Consider `COc1ccc(CNc2nc(N3CCOCC3)nc3c2ncn3C(C)C)cc1`, for which the IC50 in assay [2] (ovcar) is 4 µg/mL (≈ 10.5 µM); in assay [2] (panc1), 5.5 µg/mL (≈ 14.4 µM).
The compound `COc1ccc(CNc2nc(Cl)nc3c2ncn3Cc2ccccc2)cc1` returned an IC50 in assay [1] greater than 60 µg/mL.
As to `COc1ccc(CNc2nc(Cl)nc3c2ncn3CCCC#N)cc1`, the IC50 in assay [1] is greater than 60 µg/mL.
On the same count and under the same terms, in the case of `COC(=O)c1ccc(Cn2cnc3c(NCc4ccc(OC)cc4)nc(Cl)nc32)cc1` it was greater than 60 µg/mL.
In assay [1], `COc1ccc(CNc2nc(Cl)nc3[nH]cnc23)cc1` came in with an IC50 of 60 µg/mL (≈ 207 µM).
The same measure, in the same setting: in the case of `CC(C)[C@H](CO)Nc1nc(NCc2ccc(F)cc2)c2ncn(C(C)C)c2n1` it was 0.06 µg/mL (≈ 0.155 µM).
On the same count and under the same terms, in the case of `CC(C)n1cnc2c(NCc3ccc(Cl)cc3)nc(N[C@@H](Cc3ccccc3)C(N)=O)nc21` it was 1.07 µg/mL (≈ 2.31 µM); in that of `COc1ccc(CNc2nc(NC(C)(CO)C(C)C)nc3c2ncn3C(C)C)cc1` (stereo not given), 1 µg/mL (≈ 2.42 µM).
The same measure, in the same setting: to `CC(C)n1cnc2c(NCc3ccc(-c4ccccn4)cc3)nc(N(CCO)CCO)nc21` belongs 0.16 µg/mL (≈ 0.358 µM).
Regarding `COc1ccc(CNc2nc(N(CCO)CCO)nc3c2ncn3C(F)(C(F)(F)F)C(F)(F)F)cc1`, the IC50 in assay [1] worked out at 40 µg/mL (≈ 76 µM).
In the case of `CC(C)Cn1cnc2c(NCc3ccc(C(F)(F)F)cc3)nc(N(CCO)CCO)nc21`, the IC50 in assay [1] turned out to be 59 µg/mL (≈ 130 µM).
Still for that read-out and setting: to `CSc1cccc(Nc2nc(N(CCO)CCO)nc3c2ncn3C(C)C)c1` belongs 0.1 µg/mL (≈ 0.248 µM).
Still for that read-out and setting: to `CC(C)n1cnc2c(NCc3ccc(S(N)(=O)=O)cc3)nc(NCCN)nc21` belongs 9 µg/mL (≈ 22.2 µM).
The same measure, in the same setting: to `CSc1ccc(Nc2nc(Cl)nc3c2ncn3C(C)C)cc1` belongs 0.6 µg/mL (≈ 1.8 µM); to `CC(C)n1cnc2c(NCc3ccc(-c4ccccc4)cc3)nc(NCC(O)CO)nc21` (stereo not given), 0.6 µg/mL (≈ 1.39 µM); to `CC(C)n1cnc2c(NCc3ccc(C(F)(F)F)cc3)nc(N(CCO)CCO)nc21`, 0.56 µg/mL (≈ 1.28 µM).
`CSc1ccc(Nc2nc(N(CCO)CCO)nc3c2ncn3C(C)C)cc1` showed an IC50 in assay [1] of 0.07 µg/mL (≈ 0.174 µM).
In turn, `CC(C)n1cnc2c(Nc3cccc(-c4ccc(C#N)cc4)c3)nc(N(CCO)CCO)nc21` had an IC50 in assay [1] of 0.5 µg/mL (≈ 1.09 µM).
Consider `COc1ccc(CNc2nc(NCCO)nc3c2ncn3C)cc1`, for which the IC50 in assay [1] came to 4 µg/mL (≈ 12.2 µM).
In the case of `CC(C)n1cnc2c(NCc3ccc(Cl)cc3)nc(N(CCO)CCO)nc21`, the IC50 turned out to be 3 µg/mL (≈ 7.41 µM) in assay [2] (mrc 5) and 0.12 µg/mL (≈ 0.296 µM) in assay [1].
On the same counts, the results for `CC(C)n1cnc2c(NCc3ccc(Cl)cc3)nc(N(CCN)CCO)nc21` are 1 µg/mL (≈ 2.48 µM) and 0.07 µg/mL (≈ 0.173 µM).
`CC(C)n1cnc2c(NCC3CCCCC3)nc(Cl)nc21` showed an IC50 in assay [1] of 1 µg/mL (≈ 3.25 µM).
Same read-out and setting: to `CC(C)n1cnc2c(NCc3ccc(Cl)cc3)nc(NCC(O)c3ccccc3)nc21` (stereo not given) belongs 0.08 µg/mL (≈ 0.183 µM).
Still for that read-out and setting: to `COc1ccc(CNc2nc(Cl)nc3c2ncn3C(C)C)cc1` belongs 4 µg/mL (≈ 12.1 µM); to `CC(=O)C(C)n1cnc2c(NCc3ccc(F)cc3)nc(N(CCO)CCO)nc21` (stereo not given), 11 µg/mL (≈ 26.4 µM); to `CC(C)n1cnc2c(NCc3ccc(Cl)cc3)nc(NCCCCCN)nc21`, 31 µg/mL (≈ 77.1 µM).
`CC(C)n1cnc2c(NCc3ccc(-c4cccs4)cc3)nc(N(CCO)CCO)nc21` showed an IC50 in assay [1] of 0.5 µg/mL (≈ 1.1 µM).
Still for that read-out and setting: to `CC(C)n1cnc2c(Nc3ccccc3)nc(Cl)nc21` belongs 1 µg/mL (≈ 3.48 µM); to `COc1ccc(CNc2nc(Cl)nc3c2ncn3CCC(=O)c2cccc3ccccc23)cc1`, greater than 60 µg/mL; to `COc1ccc(CNc2nc(N(Cc3cccnc3)CC(C)C#N)nc3c2ncn3C(C)C)cc1` (stereo not given), 1 µg/mL (≈ 2.13 µM).
Still for that read-out and setting: in the case of `CC(C)n1cnc2c(NCc3ccc(F)cc3)nc(NC[C@@H](C)O)nc21` it was 0.23 µg/mL (≈ 0.642 µM); in that of `COc1ccc(CNc2nc(NCC(O)CN)nc3c2ncn3C(C)C)cc1` (stereo not given), 0.6 µg/mL (≈ 1.56 µM).
On to `CC(C)n1cnc2c(Nc3ccc(-c4ccccc4)cc3)nc(N(CCO)CCO)nc21`, for which the IC50 was determined as 1 µg/mL (≈ 2.31 µM) in assay [3]; 0.5 µg/mL (≈ 1.16 µM) in assay [2] (caco-2); 4 µg/mL (≈ 9.25 µM) in assay [2] (mcf-7); 7 µg/mL (≈ 16.2 µM) in assay [2] (ovcar); 4 µg/mL (≈ 9.25 µM) in assay [2] (panc1); 0.6 µg/mL (≈ 1.39 µM) in assay [1].
